Measured values: PubChem BioAssay (NCI)
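How tested: cells in 96-well plates exposed to compound for 48 hours at five concentrations. TGI: total growth inhibition.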

What was measured:
Test in all cases: NCI tumour cell line growth inhibition, 48 h
[1] = test system: OVCAR-5 ovarian
[2] = test system: M14 melanoma
[3] = test system: SF-268 CNS
[4] = test system: MDA-MB-231 breast
[5] = test system: SW-620 colon
[6] = test system: KM12 colon
[7] = test system: MOLT-4 leukemia
[8] = test system: 786-0 renal
[9] = test system: BT-549 breast
[10] = test system: A498 renal
[11] = test system: SF-295 CNS
[12] = test system: SNB-75 CNS
[13] = test system: HCC-2998 colon
[14] = test system: HOP-92 NSCLC
[15] = test system: SNB-19 CNS
[16] = test system: NCI-H460 lung
[17] = test system: HOP-62 NSCLC
[18] = test system: NCI-H522 lung
[19] = test system: SR leukemia
[20] = test system: SK-MEL-28 melanoma

Measured: TGI

COc1ccc(/C=C2\NC(=S)N(/C=C3\C(=O)Oc4ccccc4C3=O)C2=O)cc1OC
not listed: [19] | [20]
> 100 µM: all other assays above

BrC1=CCC23CC=C(Br)[C@H]4CC2(COC3)C[C@@H]1O4 (stereo partly specified)
86.2 µM: [1]
41.6 µM: [12]
30.9 µM: [3]
86 µM: [7]
62.1 µM: [20]
66.2 µM: [18]
not listed: [4] | [9] | [10] | [13] | [14]
> 100 µM: all other assays above

CCOC(=O)c1cc(=O)c2ccnc3c2n1CCS3
74.4 µM: [18]
not listed: [13] | [19]
> 100 µM: all other assays above

O=c1cc(-c2ccccc2)c2ccccc2[nH]1
46.5 µM: [12]
48.1 µM: [14]
not listed: [4] | [9] | [10] | [13] | [15]
> 100 µM: all other assays above

COc1ccc(/C=N/N=C(\N)NO)cc1O
55.7 µM: [8]
64.2 µM: [14]
> 100 µM: [1] | [3] | [5] | [6] | [7] | [13] | [15] | [20] | [16]

NC(=O)Nc1ccc(S(=O)(=O)Nc2ccc(S(N)(=O)=O)cc2)cc1
2.59 µM: [3]
not listed: [7] | [12] | [13] | [19]
> 100 µM: all other assays above

Cc1ccc(NCC(=O)N2CC(=O)Nc3ccccc32)c(C)c1
not listed: [4] | [9] | [10]
> 100 µM: all other assays above

CCOC(=O)c1nnsc1NC(=O)Nc1ccc(Cc2ccc(NC(=O)Nc3snnc3C(=O)OCC)cc2)cc1
95.6 µM: [4]
33.9 µM: [8]
not listed: [10] | [14] | [18] | [19]
> 100 µM: all other assays above

CCCc1cc(=O)oc2c3c(c4c(c12)OC(C)(C)CC4)O[C@@H](C)[C@H](C)[C@H]3O
36.8 µM: [5]
30.9 µM: [15]
13.7 µM: [7]
28.5 µM: [11]
24.2 µM: [16]
26.3 µM: [1]
22.5 µM: [12]
28.3 µM: [2] | [13]
29.9 µM: [6]
42 µM: [20]
17.9 µM: [9]
30.3 µM: [3]
33.4 µM: [17]
26.5 µM: [14]
11.1 µM: [4]
18.1 µM: [8]

CS(=O)(=O)OC1CCC2(C#N)CCC1C2=O (stereo unspecified)
44 µM: [19]
not listed: [4] | [5] | [9] | [14]
> 100 µM: all other assays above

CC(C)=CC1C[C@H](C2CC=C3C2(C)CCC2[C@@]3(C)C(=O)CC3[C@]2(C)C=CC(=O)[C@]3(C)CO)CO1 (stereo partly specified)
37.8 µM: [1]
41.3 µM: [14]
19 µM: [20]
23.2 µM: [10]
30.6 µM: [17]
8.43 µM: [7]
30 µM: [13]
32.1 µM: [11]
19.9 µM: [6]
42.9 µM: [15]
> 31.7 µM: [5]
25.4 µM: [16]
10.8 µM: [19]
8.71 µM: [18]
15.7 µM: [8]
23.1 µM: [3] | [12]
12.1 µM: [2]

O=C(O)c1n[nH][nH]c1=S
not listed: [9]
> 100 µM: all other assays above

Cc1cc(-c2cccc3ccccc23)c(C#N)c(=S)n1C1OC(CO)C(O)C(O)C1O (stereo unspecified)
47.5 µM: [12]
not listed: [3] | [9] | [14] | [15] | [18] | [20]
> 100 µM: all other assays above

[N-]=[N+]=NC(CCl)c1cn([C@H]2C[C@H](O)[C@@H](CO)O2)c(=O)[nH]c1=O (stereo partly specified)
not listed: [3] | [4] | [9] | [10]
> 100 µM: all other assays above
